Laboratory results published in article PMC9950205, “Efficacy, safety, and pharmacokinetics of teduglutide in adult Japanese patients with short bowel syndrome and intestinal failure: two phase III studies with an extension” (Surgery Today, 2022).

Test system: adult Japanese patients with SBS-IF
Assay: Safety: treatment-emergent adverse events (TEAEs, TESAEs)
Format: in vivo
Excerpt: Safety analyses included the monitoring of adverse events (AEs), body weight, BMI, vital signs, 12-lead electrocardiogram (ECG), serum biochemistry, hematology, and presence of antibodies to teduglutide. AEs were coded using the Medical Dictionary for Regulatory Activities versions 17.1 (TED-C14-004) and 21.0 (SHP633-306 and SHP633-307). Specifically, AEs were treatment-emergent AEs (TEAEs), defined as any unfavorable and unintended sign (including any abnormal laboratory finding), symptom, or disease that occurred during treatment with teduglutide, whether or not the event was considered to be related to the study drug by the clinical study investigator. AEs were also categorized as mild, moderate, or severe. […] AEs were considered related to treatment with teduglutide, or its administration, based on the investigator's medical judgment.

[1] = > 24 weeks (SHP633-307 and TED-C14-004), 0.05 mg/kg/day

## CC[C@H](C)[C@H](NC(=O)[C@H](Cc1ccccc1)NC(=O)[C@H](CC(=O)O)NC(=O)[C@H](CCCNC(=N)N)NC(=O)[C@H](C)NC(=O)[C@H](C)NC(=O)[C@H](CC(C)C)NC(=O)[C@H](CC(N)=O)NC(=O)[C@H](CC(=O)O)NC(=O)[C@H](CC(C)C)NC(=O)[C@@H](NC(=O)[C@@H](NC(=O)[C@H](CC(N)=O)NC(=O)[C@H](CCSC)NC(=O)[C@H](CCC(=O)O)NC(=O)[C@H](CC(=O)O)NC(=O)[C@H](CO)NC(=O)[C@H](Cc1ccccc1)NC(=O)[C@H](CO)NC(=O)CNC(=O)[C@H](CC(=O)O)NC(=O)CNC(=O)[C@@H](N)Cc1c[nH]cn1)[C@@H](C)O)[C@@H](C)CC)C(=O)N[C@@H](CC(N)=O)C(=O)N[C@@H](Cc1c[nH]c2ccccc12)C(=O)N[C@@H](CC(C)C)C(=O)N[C@H](C(=O)N[C@@H](CCC(N)=O)C(=O)N[C@H](C(=O)N[C@@H](CCCCN)C(=O)N[C@H](C(=O)N[C@H](C(=O)N[C@@H](CC(=O)O)C(=O)O)[C@@H](C)O)[C@@H](C)CC)[C@@H](C)O)[C@@H](C)CC [teduglutide]
[1]
  Pruritus: Events: 1 n
  Pruritus: Patients: 1 (6.7) n (%)
  Psychiatric disorders: Events: 4 n
  Psychiatric disorders: Patients: 3 (20.0) n (%)
  Pyrexia: Events: 5 n
  Pyrexia: Patients: 4 (26.7) n (%)
  Renal and urinary disorders: Events: 4 n
  Renal and urinary disorders: Patients: 3 (20.0) n (%)
  Respiratory, thoracic, and mediastinal disorders: Events: 8 n
  Respiratory, thoracic, and mediastinal disorders: Patients: 3 (20.0) n (%)
  Skin and subcutaneous tissue disorders: Events: 13 n
  Skin and subcutaneous tissue disorders: Patients: 7 (46.7) n (%)
  Somnolence: Events: 3 n
  Somnolence: Patients: 3 (20.0) n (%)
  Stomatitis: Events: 3 n
  Stomatitis: Patients: 3 (20.0) n (%)
  Upper respiratory tract inflammation: Events: 1 n
  Upper respiratory tract inflammation: Patients: 1 (6.7) n (%)
  Vascular disorders: Events: 4 n
  Vascular disorders: Patients: 3 (20.0) n (%)
  Vascular pain: Events: 3 n
  Vascular pain: Patients: 2 (13.3) n (%)
  Vomiting: Events: 1 n
  Vomiting: Patients: 1 (6.7) n (%)
SHP633-306 or SHP633-307
  TESAEs considered to be related to teduglutide: No TESAEs
TED-C14-004, one patient, acute hepatic and renal failure 52 days after teduglutide discontinuation
  Deaths during the study: only death
Total, 0.05 mg/kg/day
  Abdominal distension: Events: 6 n
  Abdominal distension: Patients: 6 (33.3) n (%)
  Abdominal pain: Events: 6 n
  Abdominal pain: Patients: 5 (27.8) n (%)
  Anal abscess: Events: 3 n
  Anal abscess: Patients: 3 (16.7) n (%)
  Anemia: Events: 2 n
  Anemia: Patients: 2 (11.1) n (%)
  Any TEAE: Events: 320 n
  Any TEAE: Patients: 18 (100.0) n (%)
  Arthralgia: Events: 5 n
  Arthralgia: Patients: 5 (27.8) n (%)
  Back pain: Events: 2 n
  Back pain: Patients: 2 (11.1) n (%)
  Blood and lymphatic system disorders: Events: 4 n
  Blood and lymphatic system disorders: Patients: 3 (16.7) n (%)
  Catheter site infection: Events: 2 n
  Catheter site infection: Patients: 2 (11.1) n (%)
  Catheter site pain: Events: 5 n
  Catheter site pain: Patients: 2 (11.1) n (%)
  Dehydration: Events: 4 n
  Dehydration: Patients: 2 (11.1) n (%)
  Dermatitis contact: Events: 4 n
  Dermatitis contact: Patients: 4 (22.2) n (%)
  Device occlusion (central venous catheter for PS): Events: 6 n
  Device occlusion (central venous catheter for PS): Patients: 3 (16.7) n (%)
  Device-related infection (central venous catheter for PS): Events: 33 n
  Device-related infection (central venous catheter for PS): Patients: 10 (55.6) n (%)
  Diarrhea: Events: 5 n
  Diarrhea: Patients: 4 (22.2) n (%)
  Dry skin: Events: 2 n
  Dry skin: Patients: 2 (11.1) n (%)
  Enteritis: Events: 2 n
  Enteritis: Patients: 2 (11.1) n (%)
  Enterocolitis: Events: 4 n
  Enterocolitis: Patients: 3 (16.7) n (%)
  Eye disorder: Events: 7 n
  Eye disorder: Patients: 3 (16.7) n (%)
  Gastrointestinal disorders: Events: 60 n
  Gastrointestinal disorders: Patients: 15 (83.3) n (%)
  General disorders and administration site conditions: Events: 37 n
  General disorders and administration site conditions: Patients: 10 (55.6) n (%)
  Headache: Events: 14 n
  Headache: Patients: 7 (38.9) n (%)
  Hematuria: Events: 3 n
  Hematuria: Patients: 3 (16.7) n (%)
  Hemorrhage subcutaneous: Events: 3 n
  Hemorrhage subcutaneous: Patients: 2 (11.1) n (%)
  Hepatobiliary disorders: Events: 5 n
  Hepatobiliary disorders: Patients: 4 (22.2) n (%)
  Hypersensitivity: Events: 2 n
  Hypersensitivity: Patients: 2 (11.1) n (%)
  Hypozincemia: Events: 2 n
  Hypozincemia: Patients: 2 (11.1) n (%)
